The results in this text go back to article PMC6197744, “Triazolo[4,5-d]pyrimidines as Validated General Control Nonderepressible 2 (GCN2) Protein Kinase Inhibitors Reduce Growth of Leukemia Cells” (Computational and Structural Biotechnology Journal, 2018).

Values after ≈ are worked out from the molar mass of the structure shown.

The target in data set [1] is T1, PERK (Homo sapiens, UniProt Q9NZJ5).
T1 construct: purchased Reaction Biology Corporation (Malvern, PA)
T1 sequence (Q9NZJ5 30-1116): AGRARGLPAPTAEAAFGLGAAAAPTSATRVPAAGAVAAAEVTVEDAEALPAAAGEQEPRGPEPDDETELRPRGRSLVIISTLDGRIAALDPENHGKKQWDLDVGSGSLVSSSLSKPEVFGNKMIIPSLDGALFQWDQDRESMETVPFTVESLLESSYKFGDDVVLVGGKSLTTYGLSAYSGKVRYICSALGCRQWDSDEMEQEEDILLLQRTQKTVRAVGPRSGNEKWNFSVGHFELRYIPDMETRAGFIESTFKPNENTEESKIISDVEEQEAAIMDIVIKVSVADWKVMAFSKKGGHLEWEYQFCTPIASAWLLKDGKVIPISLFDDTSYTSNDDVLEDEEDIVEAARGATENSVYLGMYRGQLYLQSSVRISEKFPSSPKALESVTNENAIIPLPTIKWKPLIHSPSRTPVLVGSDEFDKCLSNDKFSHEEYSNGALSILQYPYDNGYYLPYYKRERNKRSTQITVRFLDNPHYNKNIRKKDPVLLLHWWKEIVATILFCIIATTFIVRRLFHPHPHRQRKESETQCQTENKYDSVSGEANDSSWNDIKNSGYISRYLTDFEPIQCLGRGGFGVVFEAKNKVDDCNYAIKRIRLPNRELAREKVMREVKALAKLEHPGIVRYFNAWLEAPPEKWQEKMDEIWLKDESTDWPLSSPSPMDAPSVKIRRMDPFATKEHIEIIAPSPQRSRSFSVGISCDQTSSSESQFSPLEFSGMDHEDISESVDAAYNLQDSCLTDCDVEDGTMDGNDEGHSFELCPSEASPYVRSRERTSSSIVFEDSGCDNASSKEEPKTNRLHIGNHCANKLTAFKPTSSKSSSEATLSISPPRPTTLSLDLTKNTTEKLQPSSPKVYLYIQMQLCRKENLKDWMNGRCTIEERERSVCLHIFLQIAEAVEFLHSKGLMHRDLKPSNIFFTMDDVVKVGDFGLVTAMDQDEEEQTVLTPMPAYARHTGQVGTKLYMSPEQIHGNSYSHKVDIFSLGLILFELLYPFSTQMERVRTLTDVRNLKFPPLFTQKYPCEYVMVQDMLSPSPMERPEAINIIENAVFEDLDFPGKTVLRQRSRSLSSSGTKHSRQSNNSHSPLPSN
Kind of data set: radiometric HotSpot kinase assay. In kind it is biochemical. Particulars: 10 μM compound, 10 μM ATP; read-out: % Enzyme inhibition at 10 μM, PERK. As for the experimental part: In vitro compound profiling for recombinant GCN2, PERK, HRI, PKR, or IRE1 kinases were performed at Reaction Biology Corporation (Malvern, PA) using the HotSpot kinase assay. Briefly, all compounds provided for testing were dissolved in 10 mM DMSO stock solutions. […] Specific kinase/substrate mixtures and required cofactors were prepared in reaction buffer (20 mM Hepes (pH 7.5), 10 mM MgCl2, 1 mM EGTA, 0.02% Brij35, 0.02 mg/ml BSA, 0.1 mM Na3VO4, 2 mM DTT, 1% DMSO). Compounds were added to the kinase reaction mixture by Acoustic technology (Echo550; nanoliter range) and incubated for 20 min at room temperature. […] The reaction was incubated or 2 h at room temperature and kinase activity was detected by filter-binding method. IC50 values and curves were generated with GraphPad Prism 7 (GraphPad software).

A short description of data set [2]: Kinetic solubility assay. In kind it is physicochemical. Particulars: for solubility (in words): PBS pH 7.4; for solubility at 2 h: aqueous buffer, kinetic from dmso stock, PBS pH 7.4, 25 °C. As for the experimental part: Compound solubility was determined in PBS at pH 7.4 by Pharmaron, Inc. (Beijing, China). Briefly, all compounds and control solutions were prepared in DMSO at concentrations of 10 mM. Diclofenac was used as a positive control. 10 μL or 30 μL of each compound was added into a 96-well plate, followed by adding 990 μL or 970 μL, respectively, of PBS at pH 7.4. A stir stick was added to each well and wells were sealed using a molded PTDE/SIL 96-Well Plate Cover. […] After incubation the samples were transferred into the filter plate and filtered by Vacuum Manifold. The filtered samples were diluted with methanol to obtain 3 μM standards (STD). The samples were analyzed by LC-MS/MS against a standard of known concentration in DMSO. The solubility values of duplicate test compounds were calculated in Microsoft Excel using the following equation, where DF means dilution factor: Sample=AREASample×INJVOLStd×DFSample×STD/AREAStd×INJVOLSample

Data set [3] relates to HL-60(TB). Nature of the data set: NCI-60 one-dose screen. In kind it is cell-based. Particulars: Homo sapiens, HL-60, 48 h, read-out: Percent growth inhibition.
Data set [4] has as its system phosphorylation of eIF2α (p-eIF2α). Kind of data set: p-eIF2α reduction in amino acid deprived HEK293T cells (Western blot). Conditions: Homo sapiens, HEK-293T, amino acid deprived 4 h. In kind it is cell-based. The method, then:
Compounds 1–9 were screened in a radiometric […] kinase assay against human GCN2 and other kinases involved in the UPR and ISR pathways (Table 1). […] The most soluble of the potent tool compounds (1 and 2) were selected for in vitro cell-based assays where the phosphorylation of eIF2α (p-eIF2α) was used as a readout for GCN2 inhibition.
HEK293T cells were purchased from the American Type Culture Collection and were cultured in Dulbecco's modified Eagle's medium (DMEM; GIBCO-11995) supplemented with 10% fetal bovine serum (FBS) (Corning™ 35015CV) and antibiotics (penicillin, 10,000 UI/ml and streptomycin, 10,000 UI/ml) (Life Technologies, 15,140,122). When indicated, cells were deprived of amino acids for 4 h with DMEM (DMEM; GIBCO-21013024) containing no glutamine, no methionine, no cysteine, and no FBS. Upon starvation, cells were treated with DMSO or compound. All cell lines were maintained in humidified incubators at 37 °C under 5% CO2.
Cells were lysed for 10 min on ice with RIPA lysis buffer (50 mM Tris (pH 8), 150 mM NaCl, 1% NP-40, 0.5% sodium deoxycholate, 0.1% SDS, containing Protease Inhibitor Cocktail (PIC) (ROCHE, 11836170001), 100 mM NaF, 2 mM NaVO4, 1 mM Na B-glycerophosphate). […] IC50s were calculated using dose response – Inhibition nonlinear regression algorithm [[inhibitor] vs. response] in GraphPad Prism 7 (GraphPad Software).
(Immunoblotting shows a protein as a band on a membrane.)

In general, inhibition refers to the relative decrease from the control value, in per cent. A word on the solubility: it is the concentration that dissolves in the medium under given conditions. Low readings indicate a poorly soluble substance, high ones a readily soluble substance. As a reminder, the IC50 is the point on the concentration scale where inhibition reaches its midpoint. Consider `CCn1cc(Nc2ncc3nnn(-c4ccc(C(=O)OC)cc4)c3n2)cn1` [Compound 1, Methyl 4-(5-((1-ethyl-1H-pyrazol-4-yl)amino)-3H-[1,2,3]triazolo[4,5-d]pyrimidin-3-yl)benzoate], for which the inhibition at 10 µM in data set [1] came to 24%; in data set [3] it was 8.55%. The “solubility (in words)” value in data set [2] was “poor”. The compound also returned a solubility at 2 h in data set [2] of 0.65 µM (≈ 0.237 µg/mL). Further, in data set [4], the IC50 was determined as 52.6 nM.
For `CCOc1ccc(-n2nnc3cnc(Nc4cnn(CC)c4)nc32)cc1` [Compound 2, 3-(4-Ethoxyphenyl)-N-(1-ethyl-1H-pyrazol-4-yl)-3H-[1,2,3]triazolo[4,5-d]pyrimidin-5-amine], the inhibition at 10 µM in data set [1] is less than 10%. In addition, in data set [2], the “solubility (in words)” value is “poor” and the solubility at 2 h came to 0.31 µM (≈ 0.109 µg/mL). Moreover, the inhibition at 10 µM in data set [3] worked out at 24.6%. The compound further gave an IC50 in data set [4] of 138 nM.
